The values below come from ChEMBL document CHEMBL3045033, “Synthesis of new potential anticancer agents based on 4-thiazolidinone and oleanane scaffolds” (Med Chem Res, 2012).

Where only a bound is given, the exact number is not on record here.

Data set [1] concerns NCI-H522. The data set can be described thus: Cytotoxicity against Homo sapiens (human) NCI-H522 cells assessed as cellular growth at 10^-5 M after 48 hr by SRB assay relative to untreated control. The format is functional.
The subject of another data set is OVCAR-8. Briefly: Cytotoxicity against Homo sapiens (human) OVCAR8 cells assessed as cellular growth at 10^-5 M after 48 hr by SRB assay relative to untreated control. In kind it is functional. In general terms: In SRB staining, fixed cells bind dye roughly in proportion to their protein.
For another data set, the system named is PC-3. The data set can be described thus: Cytotoxicity against Homo sapiens (human) PC3 cells assessed as cellular growth at 10^-5 M after 48 hr by SRB assay relative to untreated control. The format is functional.
A further data set concerns U-251. Briefly: Cytotoxicity against Homo sapiens (human) U251 cells assessed as cellular growth at 10^-5 M after 48 hr by SRB assay relative to untreated control. In kind it is functional.
A further data set has as its system OVCAR-4. Briefly: Cytotoxicity against Homo sapiens (human) OVCAR4 cells after 48 hr by SRB assay. In kind it is functional. The conditions noted are these: OVCAR-4, 48 h.
The test system of a further data set is CAKI-1. Briefly: Cytotoxicity against Homo sapiens (human) Caki1 cells after 48 hr by SRB assay. The format is functional. Particulars: CAKI-1, 48 h.
The next data set relates to HCT-116. The data set can be described thus: Cytotoxicity against Homo sapiens (human) HCT116 cells assessed as cellular growth at 10^-5 M after 48 hr by SRB assay relative to untreated control. In kind it is functional.
A further data set has as its system MCF7. Briefly: Cytotoxicity against Homo sapiens (human) MCF7 cells assessed as cellular growth at 10^-5 M after 48 hr by SRB assay relative to untreated control. In kind it is functional.
In another data set the test system is A549. The data set can be described thus: Cytotoxicity against Homo sapiens (human) A549 cells assessed as cellular growth at 10^-5 M after 48 hr by SRB assay relative to untreated control. In kind it is functional.
The test system of another data set is NCI-H460. Briefly: Cytotoxicity against Homo sapiens (human) NCI-H460 cells assessed as cellular growth at 10^-5 M after 48 hr by SRB assay relative to untreated control. In kind it is functional.
Data set [2] deals with Hs-578T. Briefly: Cytotoxicity against Homo sapiens (human) Hs578T cells after 48 hr by SRB assay. In kind it is functional.
Data set [3] concerns SF-295. The data set can be described thus: Cytotoxicity against Homo sapiens (human) SF295 cells after 48 hr by SRB assay. The format is functional. The conditions noted are these: SF-295, 48 h.
For data set [4], the system named is NCI-H522. The data set can be described thus: Cytotoxicity against Homo sapiens (human) NCI-H522 cells at 10^-4 to 10^-8 M after 48 hr by SRB assay. In kind it is functional. Particulars: NCI-H522, 48 h, read-out: pTGI (converted).
The subject of a further data set is MDA-MB-231. The data set can be described thus: Cytotoxicity against Homo sapiens (human) MDA-MB-231 cells after 48 hr by SRB assay. The format is functional. The conditions noted are these: MDA-MB-231, 48 h.
The next data set concerns TK-10. Briefly: Cytotoxicity against Homo sapiens (human) TK10 cells assessed as cellular growth at 10^-5 M after 48 hr by SRB assay relative to untreated control. In kind it is functional.
Data set [5] relates to SF-295. Briefly: Cytotoxicity against Homo sapiens (human) SF295 cells assessed as cellular growth at 10^-5 M after 48 hr by SRB assay relative to untreated control. In kind it is functional.
The subject of the next data set is A498. Briefly: Cytotoxicity against Homo sapiens (human) A498 cells assessed as cellular growth at 10^-5 M after 48 hr by SRB assay relative to untreated control. In kind it is functional.
Data set [6] has as its system Hs-578T. Briefly: Cytotoxicity against Homo sapiens (human) Hs578T cells assessed as cellular growth at 10^-5 M after 48 hr by SRB assay relative to untreated control. In kind it is functional.
Data set [7] has as its system MDA-MB-468. Briefly: Cytotoxicity against Homo sapiens (human) MDA-MB-468 cells after 48 hr by SRB assay. Particulars: MDA-MB-468, 48 h, read-out: pLC50 (the source's name) (converted). The format is functional.
Another data set deals with T47D. The data set can be described thus: Cytotoxicity against Homo sapiens (human) T47D cells assessed as cellular growth at 10^-5 M after 48 hr by SRB assay relative to untreated control. In kind it is functional.
In a further data set the test system is HL-60(TB). Briefly: Cytotoxicity against Homo sapiens (human) HL-60(TB) cells assessed as cellular growth at 10^-5 M after 48 hr by SRB assay relative to untreated control. The format is functional.
The nature of data set [8]: Toxicity in mouse. In kind it is organism-based. The conditions noted are these: in vivo.
Another data set deals with CCRF-CEM. Briefly: Cytotoxicity against Homo sapiens (human) CCRF-CEM cells assessed as cellular growth at 10^-5 M after 48 hr by SRB assay relative to untreated control. The format is functional.
The subject of data set [9] is MDA-MB-468. Briefly: Cytotoxicity against Homo sapiens (human) MDA-MB-468 cells at 10^-4 to 10^-8 M after 48 hr by SRB assay. The format is functional. Particulars: MDA-MB-468, 48 h, read-out: pTGI (converted).

By GI50 is commonly meant the concentration giving 50% growth inhibition. Take `COC(=O)[C@]12CCC(C)(C)C[C@H]1C1=CC[C@@H]3[C@@]4(C)CC/C(=N\O)C(C)(C)[C@@H]4CC[C@@]3(C)[C@]1(C)CC2`: the Activity is reported as 23.74% with NCI-H522 [1]; 11.3% in the data set on OVCAR-8; 38.63% in the data set on PC-3; 33.89% with U-251; 3.39% in the data set on HCT-116; 26.08% with MCF7. The values for the Activity in the data set on A549 and with NCI-H460 were -41.06% and 44.14%, respectively. Also, the GI50 with OVCAR-4 is 30.2 µM; with CAKI-1 it was 19.5 µM; in the data set on Hs-578T [2], 27.5 µM; with SF-295 [3] it was 17.8 µM; in the data set on MDA-MB-231 it was 20.4 µM. For the same molecule, the TGI with NCI-H522 [4] is 66.1 µM.

For the molecule `CC1(C)CC[C@@]23CC[C@]4(C)[C@@](OC2=O)([C@@H]3C1)[C@@H](Br)C[C@@H]1[C@@]2(C)CC/C(=N\O)C(C)(C)[C@@H]2CC[C@]14C`, the Activity with PC-3 worked out at 38.45%; with TK-10 it was 31.05%; in the data set on SF-295 [5] it was 19.14%; with A498, 150.51%; with Hs-578T [6] it was 258.88%. In addition, the GI50 was 11.5 µM in the data set on OVCAR-4; 28.2 µM in the data set with CAKI-1; 4.68 µM in the data set with Hs-578T [2]; 14.1 µM with SF-295 [3]; 17.8 µM in the data set on MDA-MB-231. The CC50 in the data set with MDA-MB-468 [7] is over 100 µM.

Turning to `COC(=O)[C@]12CCC(C)(C)C[C@H]1C1=CC[C@@H]3[C@@]4(C)CC/C(=N\OC(=O)/C=C5/SC(=O)NC5=O)C(C)(C)[C@@H]4CC[C@@]3(C)[C@]1(C)CC2`, the Activity is on record as 9.18% in the data set with T47D, -46.91% in the data set with HL-60(TB) and -24.8% in the data set on CCRF-CEM. In data set [8], this molecule displayed an MTD of over 400 mg/kg. Further, the TGI was 6.61 µM in the data set on MDA-MB-468 [9] and 5.62 µM in the data set with NCI-H522 [4].
